pIC50: −log10 of the molar value.
target: recombinant human LRRK2 (catalytic domain only [amino acids 970-2527], GST-tagged) (Homo sapiens (Human), UniProt Q5S007); experiment: LRRK2 Enzymatic Assay; assay type: biochemical; settings: LRRKtide substrate, [32P]-ATP
Outline: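 Radiometric P81 filter-binding read-out of [32P]-ATP transfer to LRRKtide (20 μM) by 30 nM GST-LRRK2 970-2527, 2 h at room temperature after 20 min compound preincubation (10 μM–0.5 nM, 1% DMSO). IC50 derived from % remaining activity versus DMSO.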

Sequence of recombinant human LRRK2 (catalytic domain only [amino acids 970-2527], GST-tagged) (Q5S007 970-2527): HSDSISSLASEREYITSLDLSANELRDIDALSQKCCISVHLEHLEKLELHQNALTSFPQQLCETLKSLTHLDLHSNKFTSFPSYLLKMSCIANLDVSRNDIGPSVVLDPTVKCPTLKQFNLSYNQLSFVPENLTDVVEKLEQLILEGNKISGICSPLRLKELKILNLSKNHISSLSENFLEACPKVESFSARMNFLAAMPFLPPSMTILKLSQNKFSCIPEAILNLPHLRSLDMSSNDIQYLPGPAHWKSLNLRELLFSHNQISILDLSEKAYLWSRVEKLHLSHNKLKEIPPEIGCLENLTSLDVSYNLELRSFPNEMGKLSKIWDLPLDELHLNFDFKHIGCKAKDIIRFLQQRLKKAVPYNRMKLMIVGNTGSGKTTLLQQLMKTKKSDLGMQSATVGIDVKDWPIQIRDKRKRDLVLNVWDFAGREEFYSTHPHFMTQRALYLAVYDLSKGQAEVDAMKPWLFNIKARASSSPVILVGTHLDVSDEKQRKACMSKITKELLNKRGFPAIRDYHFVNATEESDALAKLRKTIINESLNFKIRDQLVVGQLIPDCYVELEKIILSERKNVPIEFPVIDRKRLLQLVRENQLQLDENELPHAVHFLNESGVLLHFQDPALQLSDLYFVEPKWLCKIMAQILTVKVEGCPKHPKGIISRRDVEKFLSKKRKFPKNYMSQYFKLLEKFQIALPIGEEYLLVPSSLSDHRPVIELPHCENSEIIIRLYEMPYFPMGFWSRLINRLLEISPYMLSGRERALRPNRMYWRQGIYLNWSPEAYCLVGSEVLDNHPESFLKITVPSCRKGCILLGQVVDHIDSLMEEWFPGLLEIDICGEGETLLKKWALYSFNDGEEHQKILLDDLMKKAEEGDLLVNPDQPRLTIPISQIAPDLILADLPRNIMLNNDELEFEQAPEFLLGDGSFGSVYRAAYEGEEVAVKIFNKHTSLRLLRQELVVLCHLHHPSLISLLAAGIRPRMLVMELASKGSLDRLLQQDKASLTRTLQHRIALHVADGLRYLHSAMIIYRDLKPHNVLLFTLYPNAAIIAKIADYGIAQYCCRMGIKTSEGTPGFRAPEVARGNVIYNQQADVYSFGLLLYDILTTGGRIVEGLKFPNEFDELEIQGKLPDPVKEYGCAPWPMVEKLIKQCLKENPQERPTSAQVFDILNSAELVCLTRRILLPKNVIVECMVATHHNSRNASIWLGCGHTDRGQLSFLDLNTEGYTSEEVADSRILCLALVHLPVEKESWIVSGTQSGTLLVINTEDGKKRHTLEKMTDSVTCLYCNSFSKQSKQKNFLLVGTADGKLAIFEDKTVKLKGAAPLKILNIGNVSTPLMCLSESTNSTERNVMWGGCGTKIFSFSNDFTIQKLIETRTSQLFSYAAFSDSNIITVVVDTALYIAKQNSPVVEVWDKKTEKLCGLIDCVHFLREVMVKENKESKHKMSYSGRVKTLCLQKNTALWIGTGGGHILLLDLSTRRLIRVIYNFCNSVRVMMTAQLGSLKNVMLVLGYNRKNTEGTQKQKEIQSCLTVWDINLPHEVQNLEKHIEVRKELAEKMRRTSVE

| pIC50 | Structure (SMILES) |
| --- | --- |
| > 7.30 | CC(=O)N[C@H]1CC[C@H](COc2nc(Nc3cn(C(C)C)nc3C)ncc2F)CC1 [Example 195, N-((1R,4R)-4-(((5-fluoro-2-((1-isopropyl-3-methyl-1H-pyrazol-4-yl)amino)pyrimidin-4-yl)oxy)methyl)cyclo-hexyl)acetamide] |
| > 7.30 | CC(=O)N[C@H]1CC[C@H](COc2nc(Nc3cn(C4CC4)nc3C)ncc2F)CC1 [Example 196, N-((1R,4R)-4-(((2-((1-cyclopropyl-3-methyl-1H-pyrazol-4-yl)amino)-5-fluoropyrimidin-4-yl)oxy)methyl)cyclo-hexyl)acetamide] |
| 6.70 to 7.30 | CC(=O)N[C@H]1CC[C@H](COc2nc(Nc3cn(C(F)F)nc3C)ncc2F)CC1 [Example 197, N-((1R,4R)-4-(((2-((1-(difluoromethyl)-3-methyl-1H-pyrazol-4-yl)amino)-5-fluoropyrimidin-4-yl)oxy)methyl)cyclo-hexyl)acetamide] |
| > 7.30 | CCc1nn(C)cc1Nc1ncc(F)c(OC[C@H]2CC[C@H](NC(C)=O)CC2)n1 [Example 198, N-((1R,4R)-4-(((2-((3-ethyl-1-methyl-1H-pyrazol-4-yl)amino)-5-fluoropyrimidin-4-yl)oxy)methyl)cyclo-hexyl)acetamide] |
| > 7.30 | CC(=O)N[C@H]1CC[C@H](COc2nc(Nc3cnn(C(C)(C)C#N)c3C)ncc2F)CC1 [Example 199, N-((1R,4R)-4-(((2-((1-(2-cyanopropan-2-yl)-5-methyl-1H-pyrazol-4-yl)amino)-5-fluoropyrimidin-4-yl)oxy)methyl)cyclo-hexyl)acetamide] |
| > 7.30 | CC(=O)N[C@H]1CC[C@H](COc2nc(Nc3cnn(C(F)F)c3C)ncc2F)CC1 [Example 200, N-((1R,4R)-4-(((2-((1-(difluoromethyl)-5-methyl-1H-pyrazol-4-yl)amino)-5-fluoropyrimidin-4-yl)oxy)methyl)cyclo-hexyl)acetamide] |
| > 7.30 | CC(=O)N[C@H]1CC[C@H](COc2nc(Nc3cn(C)nc3Cl)ncc2F)CC1 [Example 201, N-((1R,4R)-4-(((2-((3-chloro-1-methyl-1H-pyrazol-4-yl)amino)-5-fIuoropyrimidin-4-yl)oxy)methyl)cyclo-hexyl)acetamide] |
| > 7.30 | CC(=O)N[C@H]1CC[C@H](COc2nc(Nc3cn(C(C)C)nc3Cl)ncc2F)CC1 [Example 202, N-((1R,4R)-4-(((2-((3-chloro-1-isopropyl-1H-pyrazol-4-yl)amino)-5-fluoropyrimidin-4-yl)oxy)methyl)cyclo-hexyl)acetamide] |
| > 7.30 | CC(=O)N[C@H]1CC[C@H](COc2nc(Nc3cn(C4CC4)nc3Cl)ncc2F)CC1 [Example 203, N-((1R,4R)-4-(((2-((3-chloro-1-cyclopropyl-1H-pyrazol-4-yl)amino)-5-fluoropyrimidin-4-yl)oxy)methyl)cyclo-hexyl)acetamide] |
| > 7.30 | CC(=O)N[C@H]1CC[C@H](COc2nc(Nc3cnn(CCO)c3Cl)ncc2F)CC1 [Example 204, N-((1R,4R)-4-(((2-((5-chloro-1-(2-hydroxyethyl)-1H-pyrazol-4-yl)amino)-5-fluoropyrimidin-4-yl)oxy)methyl)cyclo-hexyl)acetamide] |
| > 7.30 | COCCn1ncc(Nc2ncc(F)c(OC[C@H]3CC[C@H](NC(C)=O)CC3)n2)c1Cl [Example 205, N-((1R,4R)-4-(((2-((5-chloro-1-(2-methoxyethyl)-1H-pyrazol-4-yl)amino)-5-fluoropyrimidin-4-yl)oxy)methyl)cyclo-hexyl)acetamide] |
| > 7.30 | CC(=O)N[C@H]1CC[C@H](COc2nc(Nc3cnn(C4CCOCC4)c3Cl)ncc2F)CC1 [Example 206, N-((1R,4R)-4-(((2-((5-chloro-1-(tetrahydro-2H-pyran-4-yl)-1H-pyrazol-4-yl)amino)-5-fluoropyrimidin-4-yl)oxy)methyl)cyclo-hexyl)acetamide] |
| 6.70 to 7.30 | COc1nn(C(C)C)cc1Nc1ncc(F)c(OC[C@H]2CC[C@H](NC(C)=O)CC2)n1 [Example 207, N-((1R,4R)-4-(((5-fluoro-2-((1-isopropyl-3-methoxy-1H-pyrazol-4-yl)amino)pyrimidin-4-yl)oxy)methyl)cyclo-hexyl)acetamide] |
| > 7.30 | COc1nn(C2CC2)cc1Nc1ncc(F)c(OC[C@H]2CC[C@H](NC(C)=O)CC2)n1 [Example 208, N-((1R,4R)-4-(((2-((1-cyclopropyl-3-methoxy-1H-pyrazol-4-yl)amino)-5-fluoropyrimidin-4-yl)oxy)methyl)cyclo-hexyl)acetamide] |
| > 7.30 | CC(C)n1cc(Nc2ncc(F)c(OC[C@H]3CC[C@H](NC(=O)C(F)(F)F)CC3)n2)cn1 [Example 210, 2,2,2-trifluoro-N-((1R,4R)-4-(((5-fluoro-2-((1-isopropyl-1H-pyrazol-4-yl)amino)pyrimidin-4-yl)oxy)methyl)cyclohexyl) acetamide] |
| > 7.30 | Cc1nn(C(C)C)cc1Nc1ncc(F)c(OC[C@H]2CC[C@H](NC(=O)C(F)(F)F)CC2)n1 [Example 211, 2,2,2-trifluoro-N-((1R,4R)-4-(((5-fluoro-2-((1-isopropyl-3-methyl-1H-pyrazol-4-yl)amino)pyrimidin-4-yl)oxy)methyl)cyclohexyl) acetamide] |

| pIC50 | Structure (SMILES) |
| --- | --- |
| 6.70 to 7.30 | Cc1nn(C(C)(C)C#N)cc1Nc1ncc(F)c(OC[C@H]2CC[C@H](NC(=O)C(F)(F)F)CC2)n1 [Example 212, N-((1R,4R)-4-(((2-((1-(2-cyanopropan-2-yl)-3-methyl-1H-pyrazol-4-yl)amino)-5-fluoro-pyrimidin-4-yl)oxy)methyl)cyclohexyl)-2,2,2-trifluoro-acetamide] |
| > 7.30 | COc1nn(C(C)C)cc1Nc1ncc(F)c(OC[C@H]2CC[C@H](NC(=O)C(F)(F)F)CC2)n1 [Example 213, 2,2,2-trifluoro-N-((1R,4R)-4-(((5-fluoro-2-((1-isopropyl-3-methoxy-1H-pyrazol-4-yl)amino)pyrimidin-4-yl)oxy)methyl)cyclohexyl) acetamide] |
| 6.70 to 7.30 | COc1cc(C(=O)N2CCOCC2)c(F)cc1Nc1ncc(F)c(OC[C@H]2CC[C@H](O)CC2)n1 [Example 214, (2-fluoro-4-((5-fluoro-4-(((1R,4R)-4 hydroxycyclohexyl)methoxy)pyrimidin-2-yl)amino)-5-methoxyphenyl)(morpholino)methanone] |
| > 7.30 | O[C@H]1CC[C@H](COc2nc(Nc3ccc(N4CC5(CCOC5)C4)cc3)ncc2F)CC1 [Example 215, (1R,4R)-4-(((2-((4-(6-oxa-2-azaspiro[3.4]octan-2-yl)phenyl)amino)-5-fluoropyrimidin-4-yl)oxy)methyl)cyclohexan-1-ol] |
| > 7.30 | Cn1cc(Nc2ncc(F)c(OC[C@H]3CC[C@H](O)CC3)n2)cn1 [Example 216, (1R,4R)-4-(((5-fluoro-2-((1-methyl-1H-pyrazol-4-yl)amino)pyrimidin-4-yl)oxy)methyl)cyclohexan-1-ol] |
| 6.70 to 7.30 | CCn1cc(Nc2ncc(F)c(OC[C@H]3CC[C@H](O)CC3)n2)cn1 [Example 217, (1R,4R)-4-(((2-((1-ethyl-1H-pyrazol-4-yl)amino)-5-fluoropyrimidin-4-yl)oxy)methyl)cyclohexan-1-ol] |
| 6.70 to 7.30 | CC(C)n1cc(Nc2ncc(F)c(OC[C@H]3CC[C@H](O)CC3)n2)cn1 [Example 218, (1R,4R)-4-(((5-fluoro-2-((1-isopropyl-1H-pyrazol-4-yl)amino)pyrimidin-4-yl)oxy)methyl)cyclohexan-1-ol] |
| < 6.40 | CC(C)n1cc(Nc2ncc(F)c(OC[C@H]3CC[C@@H](O)CC3)n2)cn1 [Example 219, (1S,4S)-4-(((5-fluoro-2-((1-isopropyl-1H-pyrazol-4-yl)amino)pyrimidin-4-yl)oxy)methyl)cyclohexan-1-ol] |
| 6.70 to 7.30 | O[C@H]1CC[C@H](COc2nc(Nc3cnn(C4CC4)c3)ncc2F)CC1 [Example 220, (1R,4R)-4-(((2-((1-cyclopropyl-1H-pyrazol-4-yl)amino)-5-fluoropyrimidin-4-yl)oxy)methyl)cyclohexan-1-ol] |
| 6.70 to 7.30 | CC(C)(C#N)n1cc(Nc2ncc(F)c(OC[C@H]3CC[C@H](O)CC3)n2)cn1 [Example 221] |
| < 6.40 | O[C@H]1CC[C@H](COc2nc(Nc3cnn(C(F)(F)F)c3)ncc2F)CC1 [Example 222, (1R,4R)-4-(((5-fluoro-2-((1-(trifluoromethyl)-1H-pyrazol-4-yl)amino)pyrimidin-4-yl)oxy)methyl)cyclohexan-1-ol] |
| 6.70 to 7.30 | O[C@H]1CC[C@H](COc2nc(Nc3cnn(CC(F)(F)F)c3)ncc2F)CC1 [Example 223, (1R,4R)-4-(((5-fluoro-2-((1-(2,2,2-trifluoroethyl)-1H-pyrazol-4-yl)amino)pyrimidin-4-yl)oxy)methyl)cyclohexan-1-ol] |
| > 7.30 | O[C@H]1CC[C@H](COc2nc(Nc3cnn(CCF)c3)ncc2F)CC1 [Example 224, (1R,4R)-4-(((5-fluoro-2-((1-(2-fluoroethyl)-1H-pyrazol-4-yl)amino)pyrimidin-4-yl)oxy)methyl)cyclohexan-1-ol] |
| > 7.30 | OCCn1cc(Nc2ncc(F)c(OC[C@H]3CC[C@H](O)CC3)n2)cn1 [Example 225, (1R,4R)-4-(((5-fluoro-2-((1-(2-hydroxyethyl)-1H-pyrazol-4-yl)amino)pyrimidin-4-yl)oxy)methyl)cyclohexan-1-ol] |
| 6.70 to 7.30 | COCCn1cc(Nc2ncc(F)c(OC[C@H]3CC[C@H](O)CC3)n2)cn1 [Example 226, (1R,4R)-4-(((5-fluoro-2-((1-(2-methoxyethyl)-1H-pyrazol-4-yl)amino)pyrimidin-4-yl)oxy)methyl)cyclohexan-1-ol] |

| Structure (SMILES) | pIC50 |
| --- | --- |
| O=C(N[C@H]1CC[C@H](COc2nc(Nc3ccc(N4C5CCC4COC5)cc3)ncc2F)CC1)C(F)(F)F [Example 209, N-((1R,4R)-4-(((2-((4-(3-oxa-8-aza-bicyclo[3.2.1]octan-8-yl)phenyl)amino)-5-fluoro-pyrimidin-4-yl)oxy)methyl)cyclohexyl)-2,2,2-trifluoro-acetamide] | > 7.30 |

— patent publication US11578061B2, “Inhibitors of LRRK2 kinase” (Halia Therapeutics, Inc., priority 2021, dated 2023)
